Results: the NIST ThermoML archive (doi:10.1021/je8007759)
Numbers after ± are expanded uncertainties.

Experiment: xn = mol fraction of the nth substance listed

CC1CCC(=O)O1 (stereo not given) [γ-valerolactone] + O=C=O
Fluid (supercritical or subcritical phases), Pycnometric method
Conditions | mass density [kg/m3]
322.9 K, 12320 kPa, x1 = 0.05 | 820 ± 5
322.9 K, 12330 kPa, x1 = 0.025 | 778 ± 10
322.9 K, 12520 kPa, x1 = 0.025 | 784 ± 6
322.9 K, 12540 kPa, x1 = 0.1 | 910 ± 4
322.9 K, 12620 kPa, x1 = 0.05 | 826 ± 5
322.9 K, 12660 kPa, x1 = 0.15 | 956 ± 4
322.9 K, 12710 kPa, x1 = 0.025 | 790 ± 5
322.9 K, 12920 kPa, x1 = 0.025 | 795 ± 6
322.9 K, 12960 kPa, x1 = 0.05 | 832 ± 5
322.9 K, 13080 kPa, x1 = 0.1 | 915 ± 4
322.9 K, 13150 kPa, x1 = 0.025 | 801 ± 6
322.9 K, 13170 kPa, x1 = 0.15 | 959 ± 4
322.9 K, 13320 kPa, x1 = 0.05 | 838 ± 5
322.9 K, 13390 kPa, x1 = 0.025 | 806 ± 5
322.9 K, 13570 kPa, x1 = 0.05 | 843 ± 5
322.9 K, 13640 kPa, x1 = 0.025 | 812 ± 5
322.9 K, 13720 kPa, x1 = 0.15 | 962 ± 4
322.9 K, 13790 kPa, x1 = 0.1 | 923 ± 4
322.9 K, 14000 kPa, x1 = 0.05 | 850 ± 5
322.9 K, 14100 kPa, x1 = 0.025 | 821 ± 5
322.9 K, 14230 kPa, x1 = 0.15 | 965 ± 4
322.9 K, 14430 kPa, x1 = 0.05 | 856 ± 5
322.9 K, 14490 kPa, x1 = 0.1 | 929 ± 4
322.9 K, 14840 kPa, x1 = 0.05 | 862 ± 5
322.9 K, 14860 kPa, x1 = 0.15 | 969 ± 4
322.9 K, 14880 kPa, x1 = 0.1 | 932 ± 5
322.9 K, 15440 kPa, x1 = 0.15 | 972 ± 4
322.9 K, 15620 kPa, x1 = 0.05 | 872 ± 5
322.9 K, 15960 kPa, x1 = 0.15 | 975 ± 4
322.9 K, 16660 kPa, x1 = 0.15 | 979 ± 4
322.9 K, 17270 kPa, x1 = 0.15 | 982 ± 4
327.9 K, 10570 kPa, x1 = 0.01 | 497 ± 12
327.9 K, 10600 kPa, x1 = 0.01 | 500 ± 12
327.9 K, 10630 kPa, x1 = 0.01 | 502 ± 13
327.9 K, 10660 kPa, x1 = 0.01 | 505 ± 13
327.9 K, 10690 kPa, x1 = 0.01 | 509 ± 25
327.9 K, 10720 kPa, x1 = 0.01 | 511 ± 25
327.9 K, 10740 kPa, x1 = 0.01 | 514 ± 13
327.9 K, 10770 kPa, x1 = 0.01 | 517 ± 6
327.9 K, 10820 kPa, x1 = 0.01 | 522 ± 13
327.9 K, 10880 kPa, x1 = 0.01 | 529 ± 13
327.9 K, 10930 kPa, x1 = 0.01 | 535 ± 13
327.9 K, 11010 kPa, x1 = 0.01 | 542 ± 12
327.9 K, 11080 kPa, x1 = 0.01 | 549 ± 13
327.9 K, 11130 kPa, x1 = 0.01 | 554 ± 12
327.9 K, 11190 kPa, x1 = 0.01 | 559 ± 11
327.9 K, 11280 kPa, x1 = 0.01 | 567 ± 11
327.9 K, 11300 kPa, x1 = 0.025 | 661 ± 9
327.9 K, 11360 kPa, x1 = 0.025 | 665 ± 9
327.9 K, 11420 kPa, x1 = 0.01 | 578 ± 10
327.9 K, 11420 kPa, x1 = 0.025 | 669 ± 6
327.9 K, 11480 kPa, x1 = 0.025 | 673 ± 7
327.9 K, 11510 kPa, x1 = 0.01 | 586 ± 10
327.9 K, 11520 kPa, x1 = 0.025 | 677 ± 7
327.9 K, 11590 kPa, x1 = 0.025 | 682 ± 6
327.9 K, 11600 kPa, x1 = 0.15 | 928 ± 4
327.9 K, 11630 kPa, x1 = 0.01 | 594 ± 9
327.9 K, 11660 kPa, x1 = 0.025 | 686 ± 8
327.9 K, 11720 kPa, x1 = 0.05 | 759 ± 10
327.9 K, 11730 kPa, x1 = 0.025 | 690 ± 7
327.9 K, 11740 kPa, x1 = 0.1 | 864 ± 12
327.9 K, 11770 kPa, x1 = 0.1 | 865 ± 6
327.9 K, 11790 kPa, x1 = 0.01 | 606 ± 9
327.9 K, 11800 kPa, x1 = 0.025 | 694 ± 8
327.9 K, 11840 kPa, x1 = 0.05 | 763 ± 7
327.9 K, 11880 kPa, x1 = 0.1 | 867 ± 6
327.9 K, 11890 kPa, x1 = 0.025 | 698 ± 8
327.9 K, 11920 kPa, x1 = 0.01 | 615 ± 9
327.9 K, 11920 kPa, x1 = 0.15 | 931 ± 4
327.9 K, 11970 kPa, x1 = 0.05 | 768 ± 6
327.9 K, 11980 kPa, x1 = 0.01 | 621 ± 9
327.9 K, 11990 kPa, x1 = 0.025 | 703 ± 7
327.9 K, 12050 kPa, x1 = 0.1 | 871 ± 6
327.9 K, 12070 kPa, x1 = 0.01 | 628 ± 9
327.9 K, 12110 kPa, x1 = 0.025 | 709 ± 10
327.9 K, 12130 kPa, x1 = 0.05 | 774 ± 6
327.9 K, 12250 kPa, x1 = 0.15 | 934 ± 4
327.9 K, 12280 kPa, x1 = 0.025 | 716 ± 7
327.9 K, 12300 kPa, x1 = 0.01 | 639 ± 8
327.9 K, 12310 kPa, x1 = 0.05 | 779 ± 6

mass density [kg/m3], 322.9 K, high pressure variable cell
Conditions | x1 = 0.01 | x1 = 0.025 | x1 = 0.05 | x1 = 0.1 | x1 = 0.15
Gas | 514 ± 4 | 672 ± 4 | 763 ± 4 | – | –
Liquid | – | – | – | 877 ± 4 | 936 ± 4
